Legend:
[1] = system: α1-adrenoceptor (trigonum vesicae); assay: α1-adrenoceptor-blocking activity in rabbit trigonum vesicae strips (noradrenaline contraction, Schild plot); settings: for Activity ratio: ratio of pA2 (calculated as concentration) with trigonum vesicae to pA2 with thoracic aorta
Experimental: (§1) Male albino rabbits weighing 2.2-2.5 kg were intravenously given pentobarbital (Nembutal® manufactured by Abbott) at a dose of 35 mg/kg body weight and sacrificed by exsanguination. The thoracic aorta and urinary bladder were rapidly excised and placed in modified Krebs solution. After removal of fat and unnecessary connective tissue, helical strips (3×15 mm in size) of the thoracic aorta and longitudinal strips (3×15 mm in size) of trigonum vesicae were prepared and used as specimen. The helical strips were carefully denuded of endothelium attached thereto in order to avoid any effect of the endothelium-derived vascular relaxing factors.
(§2) The preparations were vertically mounted in an organ bath filled with 20 ml of the modified Krebs solution (aerated with a gas mixture of 95 vol % of oxgen and 5 vol % of carbon dioxide and kept at 37° C.). The other end of each strip was attached to a transducer for tension measurement (the model TB-6llT manufactured by Nihon Kohden Kogyo K.K.). Changes in tension were recorded on a pen-writing oscillograph (the model Wi-68lG manufactured by Nihon Kohden Kogyo K.K.). Composition of the modified Krebs solution used herein was as follows: NaCl 115.0, KCl 4.7, MgSO4.7H2 O 1.2, CaCl2.2H2 O 2.5, KH2 PO4 1.2, NaHCO3 25.0 and glucose 10.0 (concentration in mM). The solution contained 10^-6 M propranolol, a […] (manufactured by Sigma). The loading tension was adjusted to attain a weight of 2 g for aorta and a weight of 1 g for trigone. The strips were allowed to equilibrate for at least 60 min. before initiation of the experiment, and during this period the modified Krebs solution in the organ bath was replaced every 20 min.
(§3) First, noradrenaline (manufactured by Sigma, 10^-6 -10^-4 M) was cumulatively added to each specimen to prepare a concentration-response curve to noradrenaline (to determine the 50% effective concentration ED50). […] The results were analyzed by Schild plotting to determine pA2 ([…] of concentration of the blocking agent necessary for parallel shift of the 50% contraction caused by noradrenaline to a concentration two fold as high).

[2] = target: T1, α1-adrenoceptor (trigonum vesicae) (Oryctolagus cuniculus, UniProt O02824); assay: as above; settings: rabbit trigonum vesicae longitudinal strips; antagonism of noradrenaline contraction; mean (± standard deviation); read-out: pA2, trigonum vesicae (converted)
T1 construct: longitudinal strips (3×15 mm in size) of trigonum vesicae; from tissue; host or cells: rabbit urinary bladder, longitudinal strips of trigonum vesicae
T1 sequence (O02824 1-466): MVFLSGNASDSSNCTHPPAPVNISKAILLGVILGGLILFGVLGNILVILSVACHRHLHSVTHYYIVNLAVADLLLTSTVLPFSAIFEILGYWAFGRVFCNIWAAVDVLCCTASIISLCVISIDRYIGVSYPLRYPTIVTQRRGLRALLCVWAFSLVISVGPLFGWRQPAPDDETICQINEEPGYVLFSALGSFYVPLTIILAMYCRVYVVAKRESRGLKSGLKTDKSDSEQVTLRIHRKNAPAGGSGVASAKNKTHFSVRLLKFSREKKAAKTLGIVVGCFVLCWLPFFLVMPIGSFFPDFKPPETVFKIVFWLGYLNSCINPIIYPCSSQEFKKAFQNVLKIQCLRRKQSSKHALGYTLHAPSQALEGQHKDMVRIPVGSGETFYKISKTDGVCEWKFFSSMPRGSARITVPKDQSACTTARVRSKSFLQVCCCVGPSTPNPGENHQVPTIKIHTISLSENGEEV
Experimental: as §1, §2, §3

[3] = system: α1-adrenoceptor (thoracic aorta); assay: α1-adrenoceptor-blocking activity in rabbit thoracic aorta strips (noradrenaline contraction, Schild plot); settings: rabbit thoracic aorta helical strips, endothelium denuded; antagonism of noradrenaline contraction; mean (± standard deviation)
Experimental: as §1, §2, §3

Row | Kb [2] [nM] | Compound | Activity ratio [1] | pA2, thoracic aorta [3] | pA2 comparison trigonum vesicae vs thoracic aorta (in words) [1]
1 | 5.5 | CCOC(=O)c1c(C)nc(NCCN2CCN(c3ccccc3OC)CC2)nc1C [Compound 7, 2-[2-(4-(2-methoxyphenyl)-l-piperazinyl)ethyl]amino-5-ethoxycarbonyl-4,6-dimethylpyrimidine] | 2.19 | 7.92 | 
2 | 5.25 | COc1ccccc1N1CCN(CCNc2nccc(Cl)n2)CC1 [Compound 5, 2-[2-(4-(2-methoxyphenyl)-l-piperazinyl)ethyl]amino-4-chloropyrimidine] | 2.82 | 7.83 | 
3 | 5.25 | CCOC(=O)c1c(C)nc(NCCCN2CCN(c3ccccc3OC)CC2)nc1C [Compound 4, 2-[3-(4-(2-methoxyphenyl)-l-piperazinyl)propyl]amino-5-ethoxycarbonyl-4,6-dimethylpyrimidine] | 4.27 | 7.65 | 
4 | 6.46 | COc1ccnc(NCCN2CCN(c3ccccc3OC)CC2)n1 [Compound 8, 2-[2-(4-(2-methoxyphenyl)-l-piperazinyl)ethyl]amino-4-methoxypyrimidine] | 1.86 | 7.92 | 
5 | 8.51 | COc1ccccc1N1CCN(CCNc2nc(C)c(C(C)=O)c(C)n2)CC1 [Compound 1, 2-[2-(4-(2-methoxyphenyl)-l-piperazinyl)ethyl]amino-5-acetyl-4,6-dimethylpyrimidine] | 5.25 | 7.35 | 
6 | 6.17 | COc1ccnc(NCCCCN2CCN(c3ccccc3OC)CC2)n1 [Compound 9, 2-[4-(4-(2-methoxyphenyl)-l-piperazinyl)butyl]amino-4-methoxypyrimidine] | 1.78 | 7.96 | 
7 | 7.08 | COc1ccccc1N1CCN(CCNc2nc(C)cc(C)n2)CC1 [Compound 3, 2-[2-(4-(2-methoxyphenyl)-l-piperazinyl)ethyl]amino-4,6-dimethylpyrimidine] | 3.02 | 7.67 | 
8 | 5.01 | CCOC(=O)c1c(C)nc(NCCCCN2CCN(c3ccccc3OC)CC2)nc1C [Compound 2, 2-[4-(4-(2-methoxyphenyl)-l-piperazinyl)butyl]amino-5-ethoxycarbonyl-4,6-dimethylpyrimidine] | 6.76 | 7.47 | 
9 | 7.94 | COc1ccccc1N1CCN(CCNc2ncccn2)CC1 [Compound 6, 2-[2-(4-(2-methoxyphenyl)-l-piperazinyl)ethyl]amino-pyrimidine] | 2.29 | 7.74 | 
10 |  | COc1cc2nc(N3CCN(C(=O)c4ccco4)CC3)nc(N)c2cc1OC [Prazosin, reference compound] |  | 8.55 | larger pA2 in the thoracic aorta than in the trigonum vesicae

From patent US5075308A, “Method for treating urinary obstruction” (Hitachi Chemical Co., Ltd., priority 1989, dated 1991)
